Molecules are shown by their SMILES. Several values for one entry are separate records, joined by “and”; a condition that tells them apart may be missing. Equal entries are not always repeated.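 These data come from cells grown in 96-well plates and exposed to compound for 48 hours at five concentrations. GI50 = concentration required for 50% inhibition of growth. TGI is the concentration that stops growth completely.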

Among the test systems are LXFL 529 NSCLC; P388/ADR leukemia; SNB-78 CNS; RXF-631 renal.
Common to all, as to experiment: NCI tumour cell line growth inhibition, 48 h

Consider `CCN(CC)CC[n+]1ccc2c(C)c3[nH]c4ccc(O)cc4c3c(C)c2c1`, for which the TGI with LXFL 529 NSCLC was 20 µM; in the experiment on P388/ADR leukemia it was 64.7 µM and 91.7 µM; in the experiment with SNB-78 CNS, 44.1 µM and 59.5 µM. For the same compound, the results for the GI50 in the experiment on P388/ADR leukemia and in the experiment on SNB-78 CNS were 5.08 µM and 5.71 µM, respectively.
For the compound `Cc1[nH]c(=O)[nH]c(=O)c1/C=C/C(=O)NC(CO)CS(=O)CS(C)=O` (configuration not stated), the TGI in the experiment with P388/ADR leukemia came out at 225 µM; in the experiment with SNB-78 CNS it was 97.5 µM.
Turning to `CC[C@@]1(O)C(=O)OCc2c1cc1n(c2=O)Cc2cc3ccccc3nc2-1`, the results for the TGI in the experiment with LXFL 529 NSCLC, with P388/ADR leukemia and in the experiment with SNB-78 CNS were 3.54 µM, 0.677 µM and greater than 20.5 µM, respectively.
The compound `COC(=O)C1=C(C)N2CCSC2(C)C(C(=O)OC)C1c1cccc(Cl)c1` (configuration not stated) displayed a TGI in the experiment on LXFL 529 NSCLC of 72.5 µM.
Turning to `O=C(NC(Cc1ccc(Br)cc1)C(=O)O)c1ccc(I)cc1` (configuration not stated), the TGI with P388/ADR leukemia and in the experiment on SNB-78 CNS was greater than 100 µM each time.
Turning to `COc1ccccc1CC(C)N` (configuration not stated), the TGI in the experiment with LXFL 529 NSCLC, in the experiment on RXF-631 renal and in the experiment on SNB-78 CNS was greater than 100 µM each time.
For the compound `CSc1nc(CO)c(CO)n1C`, the TGI in the experiment on P388/ADR leukemia and in the experiment with SNB-78 CNS was greater than 100 µM each time.
For the compound `Nc1ccc(O)c2c1C(=O)c1c(N)ccc(O)c1C2=O`, the TGI with LXFL 529 NSCLC and with SNB-78 CNS was greater than 100 µM throughout.
Take `COc1ccc(-c2nc3c(nc2-c2ccc(OC)cc2)C(N)=NS(=O)(=O)N3)cc1`: the TGI in the experiment on RXF-631 renal was greater than 100 µM.
In the experiment on SNB-78 CNS, `CN(C)CCNC(=O)c1cc(Cl)cc2cc3ccccc3nc12` showed a TGI of 7.56 µM.
